Literature values as cited in patent publication US11753409B2, “Crystalline salts of a B-RAF kinase inhibitor” (Xynomic Pharmaceuticals, Inc., priority 2017, dated 2023).

Experiments:
[1] = system: B-RAF-mutant melanomas and colorectal carcinomas; conditions: cited from earlier work
wild-type cells = conditions: at 1,000 nmol/L; cited from earlier work
[2] = rats, up to 60 mg/kg daily for 2 weeks; cited from earlier work
[3] = treated mice; cited from earlier work
[4] = system: human B-RAF-mutant melanoma cells; conditions: cited from earlier work
A375 melanoma = conditions: particularly in combination with trametinib; cited from earlier work

CCCS(=O)(=O)Nc1ccc(F)c(-n2cc(-c3cncnc3)c3nc(N(C)C4CCN(CC)CC4)ccc32)c1F [BI 882370, N-(3-(5-((1-ethylpiperidin-4-yl)(methyl)amino)-3-(pyrimidin-5-yl)-1H-pyrrolo[3,2-b]pyridin-1-yl)-2,4-difluorophenyl)propane-1-sulfonamide]
Efficacy compared with vemurafenib, dabrafenib, or trametinib ([1]; 25 mg/kg twice daily, oral): superior efficacy
Efficacy in mouse models ([1]; solution administered orally): efficacious
Effect on wild-type cells (wild-type cells): not affected
Toxicity (clinical chemistry, hematology, pathology, toxicogenomics) [2]: lacked toxicity
Body weight loss or clinical signs of intolerability [3]: did not show any body weight loss or clinical signs of intolerability
Pathologic changes in several major organs, including skin [3]: no pathologic changes were observed
Potency, inhibition of proliferation [4]: 1 to 10 nM
Potency relative to vemurafenib ([4]; higher potency than vemurafenib): 100 times
Activity in vemurafenib-resistant model (A375 melanoma): active
